Reference: paper PMC12114619, “Nifuroxazide and 4-Hydroxybenzhydrazone Derivatives as New Antiparasitic (Trypanosoma cruzi and Leishmania mexicana) and Anti-Mycobacterium tuberculosis Agents” (Pharmaceutics, 2025)
In brackets after ≈: the same amount, converted by molar mass.

What was measured:
[1] = tested on: intracellular amastigotes of the L. donovani 9515 strain; set-up: method as in PMID 35732232; conditions: read-out: IC50 against intracellular amastigotes of L. donovani 9515; cited from earlier work
[2] = tested on: amastigotes of the L. major IR-173 strain; set-up: method as in PMID 35732232; conditions: read-out: IC50 against amastigotes of L. major IR-173; cited from earlier work
[3] = tested on: L. mexicana MNYC/BZ/62/M379 promastigotes; experiment: Leishmanicidal activity, L. mexicana promastigotes, M379 strain (MTT); assay type: cell-based, Leishmania mexicana; conditions: 48 h
Protocol: (§1) For leishmanicidal assays, the reference strain (MNYC/BZ/62/M379) and the isolate (MHOM/MX/2017/UABJO17FCQEPS) of L. mexicana were used. Promastigotes were cultured in RPMI 1640 medium supplemented with 10% FBS, 100 U/mL penicillin-100 […] streptomycin, and glutamine (2 mM). 100 µL parasites (5 × 10^5/mL) were added in a 96-well plate, and 100 µL of appropriate concentrations (0.78 to 200 µM) of each sample dissolved in DMSO and incubated for 48 h at 26 °C. Wells containing promastigotes with DMSO 0.2% were used as a negative control, and the reference drug glucantime was included as the positive control. The 3-(4,5-Dimethylthiazol-2-yl)-2,5-diphenyltetrazolium bromide (MTT) was used to measure metabolic activity. The IC50 values were calculated with the probit statistical tool. All samples were evaluated in triplicate in three independent experiments.

[4] = tested on: L. mexicana MHOM/MX/2017/UABJO17FCQEPS promastigotes; experiment: Leishmanicidal activity, L. mexicana promastigotes, FCQEPS isolate (MTT); assay type: cell-based, Leishmania mexicana; conditions: FCQEPS strain, 48 h
Protocol: as §1

[5] = tested on: J774.2 mouse macrophage cells; experiment: Cytotoxicity on macrophages (MTT); assay type: cell-based
Protocol: (§2) Cytotoxicity was assessed on J774.2 mouse macrophage cells (ATCC® TIB-67, ATCC, Manassas, VA, USA). Cells were cultured in RPMI medium supplemented with 10% SFB, 100 U µg/mL penicillin-100 mg/mL streptomycin, and glutamine (2 mM) at 37 °C and in a 5% CO2 atmosphere. A known concentration of cells (1 × 10^6/mL) was incubated with the compounds at different concentrations (0.78 to 200 µM) for 48 h at 37 °C in a CO2 atmosphere (5%). Wells containing cells treated with 0.2% DMSO were used as a negative control. MTT was employed to evaluate the metabolic activity. Next, the cell viability was calculated (%), and the cytotoxic concentration (CC50) was determined with probit analysis. All samples were evaluated in triplicate in three independent experiments.

[6] = tested on: T. cruzi NINOA (MHOM/MX/1994/NINOA) strain epimastigotes; experiment: Trypanocidal activity, T. cruzi epimastigotes, NINOA strain (resazurin); assay type: cell-based, Trypanosoma cruzi; conditions: 48 h
[7] = tested on: T. cruzi strain A1 epimastigotes; experiment: Trypanocidal activity, T. cruzi epimastigotes, A1 strain (resazurin); assay type: cell-based, Trypanosoma cruzi; conditions: 48 h
[8] = tested on: M. tuberculosis H37Rv (ATCC 27294); experiment: Anti-Mycobacterium activity, microplate Alamar Blue Assay (MABA); assay type: cell-based, Mycobacterium tuberculosis; conditions: H37Rv strain, minimum concentration achieving 90% inhibition; for MIC: Mycobacterium tuberculosis
Protocol: The reference strain H37Rv (ATCC 27294) of M. tuberculosis was utilized to assess anti-M. tuberculosis activity using the microplate Alamar Blue Assay (MABA), as previously reported. Samples underwent evaluation in triplicate independent experiments. Isoniazid, rifampicin, moxifloxacin, and linezolid were included as reference drugs, and the minimum drug concentration that achieved 90% inhibition was recorded as the minimum inhibitory concentration (MIC).

[9] = Cytotoxicity on macrophages (MTT); assay type: cell-based, mouse; conditions: mouse, Cytotoxicity (CC50) Macrophages J774.2
Protocol: as §2

Row | Structure (SMILES) | IC50 [3] [µM] | IC50 ([6]; Trypanosoma cruzi) [µM] | IC50 ([7]; Trypanosoma cruzi) [µM] | IC50 ([3]; Leishmania mexicana) [µM] | IC50 ([4]; Leishmania mexicana) [µM] | MIC [8] [µg/mL] | CC50 at 48 h [9] [µM] | IC50 T. cruzi NINOA [6] | further results
1 | O=C(N/N=C/c1ccc([N+](=O)[O-])o1)c1ccc(OS(=O)(=O)c2cccnc2)cc1 [Compound 1l] | – | – | – | – | – | – | – | – | IC50 [1]: 3.26 µM; IC50 [2]: 1.26 µM
2 | CC(C)(C)c1ccc(COc2ccc(C(=O)N/N=C/c3ccc([N+](=O)[O-])o3)cc2)cc1 [Compound 2d] | – | – | – | – | – | – | – | – | IC50 [2]: 0.19 µM
3 | CNC[C@H](O)[C@@H](O)[C@H](O)[C@H](O)CO.[O]=[Sb](=[O])[OH] [Glucantime, reference compound] | 134 ± 3.1 | – | – | – | – | – | – | – | IC50 ([3]; listed as glucantime): 134 µM; IC50 [4]: 125 ± 1.6 µM; IC50 ([4]; listed as glucantime): > 120 µM; CC50 ([5]; J774.2 macrophages, 48 h, MTT): > 200 µM
4 | O=C(N/N=C/c1ccc([N+](=O)[O-])cc1)c1ccc(O)cc1 [Nfz-18] | > 200 | 44.5 | > 100 | > 100 | 57.8 ± 2.6 | 186 (≈ 653 µM) | 2.45 ± 2.9 | – | IC50 [6]: 44.6 ± 6.3 µM; Cytotoxicity (CC50) Macrophages J774.2 [5]: most toxic
5 | O=C(N/N=C/c1ccc2c(c1)OCCO2)c1ccc(O)cc1 [Nfz-21] | – | > 100 | 49 ± 2.1 | 71.5 ± 4.9 | > 200 | 68.7 (≈ 230 µM) | > 100 | loss of the activity | –
6 | O=C(N/N=C/c1ccc(-c2ccccc2)cc1)c1ccc(O)cc1 [Nfz-22] | – | 6.8 | > 100 | > 200 | 133 ± 1.4 | > 100 | 43.5 ± 2.5 | – | IC50 [6]: 6.87 ± 1.2 µM
7 | O=C(N/N=C/c1cc2c(cc1[N+](=O)[O-])OCO2)c1ccc(O)cc1 [Nfz-23] | 16 ± 2 | > 100 | 13.5 | < 20 | > 200 | > 100 | 68.9 ± 6.6 | loss of the activity | IC50 [7]: 13.5 ± 3.4 µM
8 | COC(=O)c1ccc(/C=N/NC(=O)c2ccc(O)cc2)cc1 [Nfz-25] | – | > 100 | > 100 | 32.5 ± 6.1 | > 200 | < 50 | > 100 | no activity | IC50 T. cruzi A1 [7]: inactive; MABA MIC [8]: 45.9 µg/mL
